Measured values: patent US20230285570A1, “THERAPEUTICALLY USEFUL CURE-PRO MOLECULES FOR E3 LIGASE MEDIATED DEGRADATION OF PROTEINS, AND METHODS OF MAKING AND USING THEM” (CORNELL UNIVERSITY, priority 2020, published 2023)
Entries after “also recorded” stand apart in the source; their conditions may differ.

Tests used:
Format in all cases: cell-based
BRD4 [1] = biological target: T1, BRD4 (Homo sapiens, UniProt O60885); test: Summary of BRD4 degradation by CURE-PRO pairs, estimated from Western Blot or WES; parameters: endogenous in cells; details: for Degradation of BRD4, combination with CRBN ligand 8047: Table 1, aryl-boronic acid BRD4 ligand + 8047; for Degradation of BRD4, combination with MDM2 ligand 8314: Table 2, aryl-boronic acid BRD4 ligand + 8314; for Degradation of BRD4, combination with CRBN ligand 8046: Table 1, aryl-boronic acid BRD4 ligand + 8046; for Degradation of BRD4, combination with CRBN ligand 8066: Table 1, aryl-boronic acid BRD4 ligand + 8066
Method in brief: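 Degradation read-out from immunoblot with ECL, or WES capillary electrophoresis with HRP detection, of RIPA lysates. Cells (Namalwa, Ramos, HeLa, MCF7, HT29 or HCT116) were exposed to DMSO-solubilized compounds for 24 h; a check mark marks 30% to 70% or higher degradation.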

BRD4 [2] = biological target: T1, BRD4; test: CURE-PRO-mediated BRD4 degradation in HCT116 cells, WES (ProteinSimple); parameters: endogenous in cells; details: 1 μM-10 μM each
Method: All cell lines were purchased from ATCC or DSMZ and grown at 37° C. with 5% CO2. Human HeLa cells were cultured in complete growth medium (Dulbecco's modified Eagle's medium (DMEM) supplemented with 10% FBS); MCF7 cells were cultured in complete growth medium (Dulbecco's modified Eagle's medium (DMEM) supplemented with 10% FBS and 0.01 mg/ml human recombinant insulin (Sigma Aldrich); Namalwa and Ramos cells were cultured in complete growth medium (RPMI 1640 medium supplemented with 10% FBS); HCT116 and HT29 cells were cultured in complete growth medium (McCoy's 5a Medium supplemented with 10% FBS). For cellular degradation of BRD4 studies cells were seeded in a 12-well plate at 70-80% confluency, allowed to attach overnight, and incubated with the indicated compounds for the indicated time. When indicated, a 15-minute pretreatment with 10 μM pomalidomide, 10 μM VHL298, 10 μM Nutlin3a, 1 μM MG-132 or 1 μM Carfilzomib was performed before the addition of CURE-PROs. For washout studies, after CURE-PRO treatment, media was aspirated and incubated with complete medium for the indicated time before lysis.
WES Simple analysis was performed on WES system (ProteinSimple-Biotechne) according to the manufacturer's instructions. Total protein concentrations of cell lysates were determined by the Pierce BCA kit (Thermo Fisher). 3 μL of 0.3 μg/μL of the protein lysate was loaded onto a 12- to 230-kDa WES assay plate (ProteinSimple) where 300 nL sample was withdrawn through a capillary, subjected to electrophoretic separation of proteins by size, and followed by the simultaneous, HRP-based detection of proteins using the Anti-Rabbit Detection Module (Proteinsimple: #DM-001). The electropherograms were checked then the automatic peak detection was manually corrected if it was required.
(§1) HCT116 cells (3×10^6) were treated for 24 hours with the compounds solubilized in DMSO. Compounds were added at 1 μM-10 μM each. Standardized protein samples were electrophoresed and imaged as described in the WES ProteinSimple section above. FIGS. 59, 60, and 61 depict the concentration-dependence of CURE-PRO-mediated BRD4 degradation using MDM2 ligands.
as §1, with “62” for “59, 60,”, “63” for “61”
HCT116 cells (3×10^6) were treated for 24 hours with the compounds solubilized in DMSO. CURE-PRO monomers were added at 10 μM each and the proteasomal inhibitors at 1 μM. Standardized protein samples were electrophoresed and imaged as described in the WES ProteinSimple section above. FIG. 68 depicts the dependence of the proteasome for CURE-PRO-mediated BRD4 degradation.

BRD4 [3] = biological target: T1, BRD4; test: CURE-PRO-mediated BRD4 degradation in HeLa cells, Western blot; parameters: endogenous in cells; host or cells: HeLa; details: 24 h; for BRD4 degradation: 10 μM each
Method in brief: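 HeLa cells (2.5×10^6) treated 24 h with DMSO-solubilized compounds, degrader pairs combined 1:1, at 1 nM-1 μM, 1-10 μM, 10 μM or 10 and 100 μM each depending on series. RIPA lysates (10-20 μg protein) run on SDS-PAGE and immunoblotted for BRD4 with ECL detection.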

MV-4-11 cells = test: CellTiter-Glo cell viability, MV-4-11 cells; details: for loss of cellular viability (toxicity) versus monomers alone: cotreated 1:1 with each of CRBN ligands 8046, 8047 and 8066, MV-4-11, 72 h, 10 nM-100 μM
Method: CellTiter-Glo® 2.0 Cell Viability Assay (Promega) was carried out following the manufacturer's recommendations. Cells were seeded at a density of 1000 cells/well in a white 96 well plates (Corning, #3917) in a total volume of 100 μl with respective monomers, combinations of BRD ligands together with E3 ligase ligands or vehicle control treatment. After a 72 h incubation, 100 ul of the CellTiter-Glo® substrate was added per well and luminescence was read on a Spectramax M5 (Molecular Devices). Dose-response curves were generated using Graphpad Prism software.
MV-4-11 cells (5×10^4) were treated for 24 hours with the sample compounds solubilized in DMSO. The compounds were added at 1 nM-100 μM each. Cellular viability was determined using the CellTiter-Glo® Luminescent Cell Viability Assay (Promega) described above. FIGS. 19-22 depict the CURE-PRO-mediated loss of cellular viability for BRD monomers (JQ1 derivatives comprising of catechol linkers), and CRBN ligand, 8049 (pomalidomide derivatives comprising boronic acid linkers) combined in a 1:1 ratio.
MV-4-11 cells (1×10^4) were treated for 72 hours with the compounds solubilized in DMSO. Compounds were added at 10 nM-100 μM each. Cellular viability was determined using the CellTiter-Glo® Luminescent Cell Viability Assay (Promega) described above. FIGS. 47-54 depict the CURE-PRO-mediated loss of cellular viability for BRD monomers (JQ1 derivatives comprising of boronic acid linkers), and CRBN ligands, 8046, 8047 and 8066 (pomalidomide derivatives comprising diol linkers) combined in a 1:1 ratio.

[4] = 1:1 with MDM2 ligand 8313, HCT116, 24 h
[5] = 1:1 with MDM2 ligand 8314, HCT116, 24 h
[6] = co-treated 1:1 with CRBN ligand 8046, HeLa
[7] = co-treated 1:1 with CRBN ligand 8066, HeLa

Row | Structure (SMILES) | Degradation of BRD4, combination with CRBN ligand 8047 (BRD4 [1]) | Degradation of BRD4, combination with CRBN ligand 8046 (BRD4 [1]) | Degradation of BRD4, combination with CRBN ligand 8066 (BRD4 [1]) | BRD4 degradation (BRD4 [3]; [6]) | BRD4 degradation (BRD4 [3]; [7]) | loss of cellular viability (toxicity) versus monomers alone (MV-4-11 cells) | also measured
1 | CCNC(=O)C[C@@H]1N=C(c2ccc(Cl)cc2)c2cc(OCCNC(=O)c3cccc(B(O)O)c3)ccc2-n2c(C)nnc21 [BRD-E21, (3-((2-(((4S)-6-(4-chlorophenyl)-4-(2-(ethylamino)-2-oxoethyl)-1-methyl-4H-benzo[f][1,2,4]triazolo[4,3-a][1,4]diazepin-8-yl)oxy)ethyl)carbamoyl)phenyl)boronic acid] | √ (A black check mark indicates efficacy of 30% to 70% or higher protein degradation) | – | – | – | – | – | Degradation of BRD4, combination with MDM2 ligand 8314 (BRD4 [1]): √ (A black check mark indicates efficacy of 30% to 70% or higher protein degradation); BRD4 degradation (BRD4 [2]; [4]): had no effect on BRD4 protein levels; BRD4 degradation (BRD4 [2]; [5]): caused partial loss of the BRD4 protein; also recorded: Degradation is observed; concentration from which BRD4 degradation is observed (BRD4 [3]; 1:1 with CRBN ligand 8047, HeLa, 1 nM-1 μM each): ≥ 10 nM; BRD4 expression (BRD4 [3]; BRD monomer alone, HeLa, 1 nM-1 μM): no change in expression is observed
2 | COc1ccc2c(c1)C(c1ccc(Cl)cc1)=N[C@@H](CC(=O)NCCNC(=O)/C=C/c1ccc(B(O)O)cc1)c1nnc(C)n1-2 [BRD-E29, (4-((E)-3-((2-(2-((4S)-6-(4-chlorophenyl)-8-methoxy-1-methyl-4H-benzo[f][1,2,4]triazolo[4,3-a][1,4]diazepin-4-yl)acetamido)ethyl)amino)-3-oxoprop-1-en-1-yl)phenyl)boronic acid] | √ (A black check mark indicates efficacy of 30% to 70% or higher protein degradation) | √ (A black check mark indicates efficacy of 30% to 70% or higher protein degradation) | √ (A black check mark indicates efficacy of 30% to 70% or higher protein degradation) | causes degradation of BRD4; also recorded: Degradation is noted | causes degradation of BRD4; also recorded: Degradation is noted | reduced viability; also recorded: increased toxicity | BRD4 degradation (BRD4 [3]; co-treated 1:1 with CRBN ligand 8047, HeLa): causes degradation of BRD4; also recorded: Degradation is noted
3 | COc1ccc2c(c1)C(c1ccc(Cl)cc1)=N[C@@H](CC(=O)NCCOCCOCCNC(=O)c1cccc(B(O)O)c1)c1nnc(C)n1-2 [BRD-E46] | – | √ (A black check mark indicates efficacy of 30% to 70% or higher protein degradation) | √ (A black check mark indicates efficacy of 30% to 70% or higher protein degradation) | causes degradation of BRD4; also recorded: Degradation is noted | causes degradation of BRD4; also recorded: Degradation is noted | reduced viability; also recorded: increased toxicity | –
4 | COc1ccc2c(c1)C(c1ccc(Cl)cc1)=N[C@@H](CC(=O)Nc1cccc(B(O)O)c1)c1nnc(C)n1-2 [BRD-E73, (3-(2-((4S)-6-(4-chlorophenyl)-8-methoxy-1-methyl-4H-benzo[f][1,2,4]triazolo[4,3-a][1,4]diazepin-4-yl)acetamido)phenyl)boronic acid] | – | – | – | – | – | reduced viability; also recorded: increased toxicity | –
5 | CCNC(=O)C[C@@H]1N=C(c2ccc(Cl)cc2)c2cc(Sc3ccc(B(O)O)cc3)ccc2-n2c(C)nnc21 [BRD-E75, (4-(((4S)-6-(4-chlorophenyl)-4-(2-(ethylamino)-2-oxoethyl)-1-methyl-4H-benzo[f][1,2,4]triazolo[4,3-a][1,4]diazepin-8-yl)thio)phenyl)boronic acid] | – | – | – | – | – | reduced viability; also recorded: increased toxicity | Degradation of BRD4, combination with MDM2 ligand 8314 (BRD4 [1]): √ (A black check mark indicates efficacy of 30% to 70% or higher protein degradation)
6 | CCNC(=O)C[C@@H]1N=C(c2ccc(Cl)cc2)c2cc(OCCCCCCCNC(=O)c3ccc(B(O)O)cc3)ccc2-n2c(C)nnc21 [BRD-E78] | – | – | – | – | – | reduced viability; also recorded: increased toxicity | Degradation of BRD4, combination with VHL ligand 8305 (BRD4 [1]; Table 3, aryl-boronic acid BRD4 ligand + 8305): √ (A black check mark indicates efficacy of 30% to 70% or higher protein degradation)
7 | CCNC(=O)C[C@@H]1N=C(c2ccc(Cl)cc2)c2cc(OCCCCCCNC(=O)c3ccc(B(O)O)cc3)ccc2-n2c(C)nnc21 [BRD-E79, (4-((6-(((4S)-6-(4-chlorophenyl)-4-(2-(ethylamino)-2-oxoethyl)-1-methyl-4H-benzo[f][1,2,4]triazolo[4,3-a][1,4]diazepin-8-yl)oxy)hexyl)carbamoyl)phenyl)boronic acid] | √ (A black check mark indicates efficacy of 30% to 70% or higher protein degradation) | √ (A black check mark indicates efficacy of 30% to 70% or higher protein degradation) | √ (A black check mark indicates efficacy of 30% to 70% or higher protein degradation) | causes degradation of BRD4; also recorded: Degradation is noted | causes degradation of BRD4; also recorded: Degradation is noted | – | Degradation of BRD4, combination with MDM2 ligand 8313 (BRD4 [1]; Table 2, aryl-boronic acid BRD4 ligand + 8313): √ (A black check mark indicates efficacy of 30% to 70% or higher protein degradation); BRD4 degradation (BRD4 [2]; [4]): caused BRD4 protein degradation at 1 and 10 μM; also recorded: Degradation of BRD4 is observed; BRD4 degradation (BRD4 [2]; [5]): no protein loss was observed
8 | COc1ccc2c(c1)C(c1ccc(Cl)cc1)=N[C@@H](CC(=O)NCCCCCNC(=O)c1cccc(O)c1O)c1nnc(C)n1-2 [BRD-N8, N-(5-(2-((4S)-6-(4-chlorophenyl)-8-methoxy-1-methyl-4H-benzo[f][1,2,4]triazolo[4,3-a][1,4]diazepin-4-yl)acetamido)pentyl)-2,3-dihydroxybenzamide] | – | – | – | – | – | – | loss of cellular viability (toxicity) (MV-4-11 cells; co-dosed 1:1 with CRBN ligand 8049, MV-4-11, 24 h, 1 nM-100 μM each): concentration-dependent loss in cellular viability; also recorded: increased toxicity
